Results published in patent US20220232831A1, “NOVEL NON-CODING HETEROCYCLIC AMINO ACIDS (NCHAA) AND THEIR USE AS HERBICIDES” (Fortephest Ltd., priority 2019, published 2022).

Tests used:
[1] = test system: Setaria verticillata (Bristlegrass); assay: Herbicidal activity on development of weeds and crops (pot test); format: in vivo; conditions: 32 days after application, 0 = dead, 100% = healthy
Experimental: (§1) The experiment included 225 pots. Weed seeds were sawn in 0.3-liter pots, containing medium-heavy clay-loam soil from Newe Ya'ar Research Center organic fields (55% clay, 23% silt, 20% sand, 2% organic matter, pH 7.1). The experiment was conducted in a completely randomized design. Each treatment was replicated 5 times (5 pots). The herbicides were applied at 200 L/ha with a motorized sprayer equipped with a Tee Jet 8001E nozzle (Spraying Systems Co., North Ave., Wheaton, Ill. 60188, USA) and operated at a pressure of 300 kPa. The pots were transferred to a glasshouse 24 hours after herbicide application and were sprinkler irrigated to field capacity of the soil. The plants were grown in the glasshouse during the entire experiment. Plant development at 6, 12, 19, 26 and 32 days after application (DAA) were evaluated on a scale of 0 to 100%, in which 0 represents dead plants and 100% represents healthy plants according to plant vigor, height, and leaf color.
(§2) Phalaris minor (Cannarygrass); Setaria verticillata (Bristlegrass); Solanum nigrum (Black nightshade) Sinapis arvensis (Mustard); Silybum marianum (Thistle); Chenopodium album (Lambsquarter); Amaranthus (Pigweed); Fodder corn; Avena sativa (Cultured oats.
(§3) Plant development was evaluated on a scale of 0 to 100%, in which 0 represents dead plants and 100% represents healthy plants according to plant vigor, height, and leaf color.

[2] = test system: Phalaris minor (Cannarygrass); assay: as above; format: in vivo; conditions: 32 days after application, 0 = dead, 100% = healthy
Experimental: as §1, §2, §3

[3] = test system: Chenopodium album (Lambsquarter); assay: as above; format: in vivo; conditions: 32 days after application, 0 = dead, 100% = healthy
Experimental: as §1, §2, §3

Fodder Corn = assay: as above; format: in vivo; conditions: Fodder corn (crop); 32 days after application; 0 = dead, 100% = healthy
Experimental: as §1, §2, §3

[4] = test system: Avena sativa (Cultured oats); assay: as above; format: in vivo; conditions: Avena sativa (crop); 32 days after application; 0 = dead, 100% = healthy
Experimental: as §1, §2, §3

[5] = test system: Solanum nigrum (Black nightshade); assay: as above; format: in vivo; conditions: 32 days after application, 0 = dead, 100% = healthy
Experimental: as §1, §2, §3

[6] = test system: Sinapis arvensis (Mustard); assay: as above; format: in vivo; conditions: 32 days after application, 0 = dead, 100% = healthy
Experimental: as §1, §2, §3

[7] = test system: Amaranthus blitoides (Pigweed); assay: as above; format: in vivo; conditions: 32 days after application, 0 = dead, 100% = healthy
Experimental: as §1, §2, §3

[8] = test system: Romaine lettuce (Lactuca sativa L.) plants; assay: Post-emergency herbicidal activity on Romaine lettuce plants; format: in vivo; conditions: Romaine lettuce at stage 2 to 3 leaves; compound in 0.1% Silwet, up to 0.5%; visual evaluation vs control plants
Procedure, shortened: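 Plants at the 2 to 3 leaf stage were treated with compound in 0.1% aqueous Silwet at 0.0% (Control) to 0.5%, with 20 to 40 plants per test. Vigor, height and leaf color were scored 0 (dead) to 100 (healthy) at 7, 14 and 21 DAA, and aboveground wet weight was measured.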

[9] = test system: Seeds of Lettuce R. (Super-Jericho); assay: Filter paper bioassay with lettuce seeds (germination and early plant development); format: in vivo; conditions: lettuce seeds on filter paper; 1, 0.1, 0.01, 0.001 mM; radicle and shoots assessed after 6 days
Procedure, shortened: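 Lettuce seeds (10 per plate) were placed on filter paper with 2.0 ml water or test material at 1, 0.1, 0.01 or 0.001 mM. Plates were kept dark for 48 h, then grown 4 days at 22° C under a 6/18 dark/light cycle. At day 6, radicle and shoot development was scored visually; MEC is the lowest concentration causing deviation from control.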

Marianum (Thistle) = assay: Herbicidal activity on development of weeds and crops (pot test); format: in vivo, Silybum marianum; conditions: 32 days after application, 0 = dead, 100% = healthy
Experimental: as §1, §2, §3

| SMILES | post-emergency herbicidal activity (Activity Index: plant's development vs Control) [8] | Minimal Effective Concentration (MEC) as activity score, seeds germination & early plants development [9] | also measured |
| --- | --- | --- | --- |
| NC(Cc1cc(Cl)sc1Cl)C(=O)O (centres unmarked) [Code 517, 2-amino-3-(2,5-dichlorothiophen-3-yl)propanoic acid] | Maximal (Less than 15) | Maximal (0.01 mM and less) | Plants' Development (% of Control group) following treatment with NCHAAs [1]: 100%; Plants' Development (% of Control group) following treatment with NCHAAs [2]: 60%; Plants' Development (% of Control group) following treatment with NCHAAs [3]: 10%; Plants' Development (% of Control group) following treatment with NCHAAs (Fodder Corn): 90%; Plants' Development (% of Control group) following treatment with NCHAAs [4]: 100%; Plants' Development (% of Control group) following treatment with NCHAAs [5]: 15%; Plants' Development (% of Control group) following treatment with NCHAAs [6]: 0%; Plants' Development (% of Control group) following treatment with NCHAAs [7]: 10%; Plants' Development (% of Control group) following treatment with NCHAAs (Marianum (Thistle)): 35% |
| NC(Cc1cscc1C(F)(F)F)C(=O)O (centres unmarked) [Code 566] | Maximal (Less than 15) | Strong (0.1 mM) |  |
| CCCCOC(=O)C(Cc1nsc(Cl)n1)NC(C)=O (centres unmarked) [Code 595] | Strong (From 25 to 50) | Strong (0.1 mM) |  |
| NC(Cc1ccc[nH]1)C(=O)O (centres unmarked) [Code 703] | Weak (More than 75) | Weak (More than 1 mM) |  |
| NC(Cc1ccsc1)C(=O)NCCOCCO (centres unmarked) [Code 549] | Weak (More than 75) | Weak (More than 1 mM) |  |
| CCCOCCOC(=O)C(N)CNS(=O)(=O)c1cc(Cl)sc1Cl (centres unmarked) [Code 525] | Weak (More than 75) | Weak (More than 1 mM) |  |
| NC(Cc1c(Cl)cncc1Cl)C(=O)O (centres unmarked) [Code 629] | Moderate (From 50 to 75) | Weak (More than 1 mM) |  |
| NC(Cc1cc(=O)[nH]c(S)n1)C(=O)O (centres unmarked) [Code 653] | Weak (More than 75) | Weak (More than 1 mM) |  |
| NC(Cc1cncc(F)c1)C(=O)O (centres unmarked) [Code 626] | Strong (From 25 to 50) | Strong (0.1 mM) |  |
| COC(=O)C(N)Cc1cc(Br)nc(Br)c1 (centres unmarked) [Code 670] | Very Strong (From 15 to 25) | Strong (0.1 mM) |  |
| NC(Cc1cncnc1)C(=O)O (centres unmarked) [Code 614] | Weak (More than 75) | Weak (More than 1 mM) |  |
| NC(Cc1ccnnc1)C(=O)O (centres unmarked) [Code 601] | Weak (More than 75) | Weak (More than 1 mM) |  |
| NC(CCc1cc[nH]c1)C(=O)O (centres unmarked) [Code 702] | Weak (More than 75) | Weak (More than 1 mM) |  |
| CCOC(=O)C(Cc1ccc(Br)nc1)NC(C)=O (centres unmarked) [Code 671] | Weak (More than 75) | Strong (0.1 mM) |  |
| C[n+]1cncc(CC(N)C(=O)O)c1 (centres unmarked) [Code 676] | Very Strong (From 15 to 25) | Moderate (1 mM) |  |
| CCOC(=O)C(Cc1nc(Cl)sc1Cl)NC(C)=O (centres unmarked) [Code 567] | Maximal (Less than 15) | Weak (More than 1 mM) |  |
